The values that follow are results of earlier work, collected in EP3290412A1, “HIV-1 NUCLEOCAPSID INHIBITORS” (Università degli Studi di Siena, priority 2016, dated 2018).

Series [1] deals with NIH Catalogue Number: 12465. Particulars: cited from earlier work; for Level of resistance: PI resistant strain 12465; for Fold change: strain 12465, resistant virus IC50 to wild-type reference virus IC50 ratio, cut-off in brackets.
For series [2], the system named is NIH Catalogue Number: 11808. The settings on record: cited from earlier work; for Level of resistance: PI resistant strain 11808; for Fold change: strain 11808, resistant virus IC50 to wild-type reference virus IC50 ratio, cut-off in brackets.
Series [3] deals with NIH Catalogue Number: 12231. The settings on record: cited from earlier work; for Level of resistance: NNRTI resistant strain 12231; for Fold change: strain 12231, resistant virus IC50 to wild-type reference virus IC50 ratio, cut-off in brackets.
The test system of series [4] is NIH Catalogue Number: 12229. Particulars: cited from earlier work; for Level of resistance: NNRTI resistant strain 12229; for Fold change: strain 12229, resistant virus IC50 to wild-type reference virus IC50 ratio, cut-off in brackets.
Series [5] relates to NIH Catalogue Number: 11845. The settings on record: INI resistant strain 11845; cited from earlier work.

Marks after values point to notes of the source that are not given here. A value given as a limit tells only on which side of the number the result lay.

On to `COC(=O)N[C@H](C(=O)N[C@@H](Cc1ccccc1)[C@@H](O)CN(Cc1ccc(-c2ccccn2)cc1)NC(=O)[C@@H](NC(=O)OC)C(C)(C)C)C(C)(C)C` [Atazanavir], for which, in series [1], the Level of resistance result is given as “High resistance” and the Fold change was 110 (2.2^c). For the same compound, in series [2], the Level of resistance result was “High resistance” and the Fold change is given as 90 (2.2^c).
On to `O=C1Nc2ccc(Cl)cc2[C@@](C#CC2CC2)(C(F)(F)F)O1` [Efavirenz], for which, in series [3], the Level of resistance result is listed as “High resistance” and the Fold change is 90 (3^b). In series [4], the Level of resistance result is “High resistance” and the Fold change was >200 (3^b).
For `COc1cc2c(cc1Cc1cccc(Cl)c1F)c(=O)c(C(=O)O)cn2[C@H](CO)C(C)C` [Elvitegravir™, Elvitegravir], the Level of resistance result in series [5] is on record as “Intermediate”.
Take `Cc1ccnc2c1NC(=O)c1cccnc1N2C1CC1` [Nevirapine]: in series [3], the Level of resistance entry is “High resistance” and the Fold change is recorded as >200 (4.5^b). Also, in series [4], the Level of resistance result is “High resistance” and the Fold change was >200 (4.5^b).
For `Cc1cccc(C)c1OCC(=O)N[C@@H](Cc1ccccc1)[C@@H](O)C[C@H](Cc1ccccc1)NC(=O)[C@H](C(C)C)N1CCCNC1=O` [Lopinavir], in series [1], the Level of resistance entry was “Intermediate resistance” and the Fold change is 36 (10^c). In addition, in series [2], the Level of resistance result is given as “High resistance” and the Fold change is 70 (10^c).
As to `CC(C)CN(C[C@@H](O)[C@H](Cc1ccccc1)NC(=O)O[C@H]1CO[C@H]2OCC[C@H]21)S(=O)(=O)c1ccc(N)cc1` [Darunavir], in series [1], the Level of resistance entry is “Susceptible” and the Fold change is 5.2 (10^c). For the same compound, in series [2], the Level of resistance result is reported as “High resistance” and the Fold change was 127 (10^c).
